Test results as given in ChEMBL document CHEMBL5291721, “A preclinical secondary pharmacology resource illuminates target-adverse drug reaction associations of marketed drugs” (Nat Commun, 2023).

Columns and labels:
[1] = target: T1, Alpha-1A adrenergic receptor (Homo sapiens, UniProt P35348); assay type: functional, cell-based
T1 sequence (P35348 whole entry): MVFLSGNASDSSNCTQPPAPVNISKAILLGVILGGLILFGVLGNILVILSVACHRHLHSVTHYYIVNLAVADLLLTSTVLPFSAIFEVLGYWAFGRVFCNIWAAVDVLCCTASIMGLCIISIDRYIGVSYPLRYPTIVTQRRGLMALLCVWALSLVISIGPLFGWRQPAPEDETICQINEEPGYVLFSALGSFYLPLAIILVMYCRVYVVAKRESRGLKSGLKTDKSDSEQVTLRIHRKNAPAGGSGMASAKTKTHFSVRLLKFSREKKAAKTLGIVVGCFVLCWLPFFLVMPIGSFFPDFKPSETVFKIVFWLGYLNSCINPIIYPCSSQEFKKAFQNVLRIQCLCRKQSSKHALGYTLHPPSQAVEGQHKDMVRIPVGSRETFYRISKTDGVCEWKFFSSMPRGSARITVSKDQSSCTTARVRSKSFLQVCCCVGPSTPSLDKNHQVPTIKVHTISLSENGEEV

[2] = target: T2, 5-hydroxytryptamine receptor 2C (Homo sapiens, UniProt P28335)
T2 sequence (P28335 whole entry): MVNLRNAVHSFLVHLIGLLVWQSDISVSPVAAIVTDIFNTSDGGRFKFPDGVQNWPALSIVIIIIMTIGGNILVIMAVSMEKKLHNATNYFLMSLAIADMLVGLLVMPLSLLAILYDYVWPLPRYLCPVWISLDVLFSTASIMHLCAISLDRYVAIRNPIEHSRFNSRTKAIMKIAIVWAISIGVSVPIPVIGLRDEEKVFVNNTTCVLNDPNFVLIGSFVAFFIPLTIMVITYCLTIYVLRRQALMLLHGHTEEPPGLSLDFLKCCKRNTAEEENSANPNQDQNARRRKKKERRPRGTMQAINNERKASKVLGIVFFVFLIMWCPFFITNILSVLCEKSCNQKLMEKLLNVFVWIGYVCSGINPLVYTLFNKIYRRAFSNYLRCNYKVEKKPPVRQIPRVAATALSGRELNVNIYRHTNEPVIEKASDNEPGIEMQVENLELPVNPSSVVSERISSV

[3] = target: Voltage-dependent L-type calcium channel subunit alpha-1C (Rattus norvegicus, UniProt P22002); assay type: functional
D(1A) dopamine receptor = D(1A) dopamine receptor (Homo sapiens, UniProt P21728); assay type: functional, cell-based
[4] = target: T3, Gastrin/cholecystokinin type B receptor (Homo sapiens, UniProt P32239)
T3 sequence (P32239 whole entry): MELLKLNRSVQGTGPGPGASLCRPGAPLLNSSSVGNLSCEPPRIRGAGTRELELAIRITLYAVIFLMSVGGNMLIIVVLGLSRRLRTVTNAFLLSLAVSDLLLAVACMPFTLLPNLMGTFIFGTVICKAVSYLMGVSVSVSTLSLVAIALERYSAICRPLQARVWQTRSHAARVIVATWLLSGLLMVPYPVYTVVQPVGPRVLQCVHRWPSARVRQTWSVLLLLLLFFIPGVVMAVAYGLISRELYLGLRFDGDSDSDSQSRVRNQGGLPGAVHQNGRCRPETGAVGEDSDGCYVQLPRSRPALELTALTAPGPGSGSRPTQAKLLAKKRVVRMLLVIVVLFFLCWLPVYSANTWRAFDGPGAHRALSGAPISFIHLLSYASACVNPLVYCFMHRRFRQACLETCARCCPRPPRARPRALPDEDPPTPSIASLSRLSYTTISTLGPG

[5] = target: Sodium-dependent dopamine transporter (Homo sapiens, UniProt Q01959)
[6] = target: T4, Alpha-2C adrenergic receptor (Homo sapiens, UniProt P18825); assay type: functional
T4 sequence (P18825 whole entry): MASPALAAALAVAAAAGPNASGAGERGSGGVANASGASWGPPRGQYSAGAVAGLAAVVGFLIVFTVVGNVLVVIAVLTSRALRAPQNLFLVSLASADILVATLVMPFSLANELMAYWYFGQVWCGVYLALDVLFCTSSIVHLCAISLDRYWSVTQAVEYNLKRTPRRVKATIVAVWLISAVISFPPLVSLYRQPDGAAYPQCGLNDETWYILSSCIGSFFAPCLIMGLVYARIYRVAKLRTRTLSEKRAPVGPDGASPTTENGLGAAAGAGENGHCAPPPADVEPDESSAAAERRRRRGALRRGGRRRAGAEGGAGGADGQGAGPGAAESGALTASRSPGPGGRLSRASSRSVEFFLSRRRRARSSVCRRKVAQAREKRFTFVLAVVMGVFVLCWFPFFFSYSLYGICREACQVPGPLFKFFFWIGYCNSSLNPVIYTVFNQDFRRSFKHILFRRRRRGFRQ

Histamine H2 receptor = Histamine H2 receptor (Homo sapiens, UniProt P25021); assay type: functional, cell-based
[7] = target: Gamma-aminobutyric acid receptor subunit alpha-1 (Rattus norvegicus, UniProt P62813); assay type: functional
Vasopressin V2 receptor = Vasopressin V2 receptor (Homo sapiens, UniProt P30518)
Cannabinoid receptor 1 = Cannabinoid receptor 1 (Homo sapiens, UniProt P21554); assay type: functional, cell-based
[8] = target: T5, Equilibrative nucleoside transporter 1 (Homo sapiens, UniProt Q99808)
T5 sequence (Q99808 whole entry): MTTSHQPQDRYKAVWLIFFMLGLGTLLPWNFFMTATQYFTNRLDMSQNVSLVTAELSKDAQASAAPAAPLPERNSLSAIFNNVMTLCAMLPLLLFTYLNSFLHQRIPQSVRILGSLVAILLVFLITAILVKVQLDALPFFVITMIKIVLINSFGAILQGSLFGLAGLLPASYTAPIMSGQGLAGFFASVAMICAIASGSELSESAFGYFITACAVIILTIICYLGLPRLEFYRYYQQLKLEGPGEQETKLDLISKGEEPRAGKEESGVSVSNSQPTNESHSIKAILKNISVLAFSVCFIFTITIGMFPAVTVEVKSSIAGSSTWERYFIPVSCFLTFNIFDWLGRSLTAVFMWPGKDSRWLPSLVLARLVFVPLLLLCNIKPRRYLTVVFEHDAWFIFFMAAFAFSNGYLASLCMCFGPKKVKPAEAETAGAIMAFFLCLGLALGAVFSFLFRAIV

[9] = target: Voltage-gated inwardly rectifying potassium channel KCNH2 (Homo sapiens, UniProt Q12809); assay type: functional; conditions: read-out: AC50
Further: assay procedure not described here.

Sequence of D(1A) dopamine receptor (P21728 whole entry): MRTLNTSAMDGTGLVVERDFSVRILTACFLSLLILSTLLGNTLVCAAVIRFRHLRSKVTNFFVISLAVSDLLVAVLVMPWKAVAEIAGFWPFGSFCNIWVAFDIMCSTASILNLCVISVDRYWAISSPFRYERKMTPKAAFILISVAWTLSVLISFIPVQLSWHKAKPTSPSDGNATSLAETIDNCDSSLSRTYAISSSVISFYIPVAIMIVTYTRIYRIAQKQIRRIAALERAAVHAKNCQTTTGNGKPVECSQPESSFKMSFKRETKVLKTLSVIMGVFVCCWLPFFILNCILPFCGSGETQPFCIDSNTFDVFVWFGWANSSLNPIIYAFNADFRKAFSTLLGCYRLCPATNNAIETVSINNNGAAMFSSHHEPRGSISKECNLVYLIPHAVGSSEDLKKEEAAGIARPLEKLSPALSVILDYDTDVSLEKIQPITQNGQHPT
Sequence of Sodium-dependent dopamine transporter (Q01959 whole entry): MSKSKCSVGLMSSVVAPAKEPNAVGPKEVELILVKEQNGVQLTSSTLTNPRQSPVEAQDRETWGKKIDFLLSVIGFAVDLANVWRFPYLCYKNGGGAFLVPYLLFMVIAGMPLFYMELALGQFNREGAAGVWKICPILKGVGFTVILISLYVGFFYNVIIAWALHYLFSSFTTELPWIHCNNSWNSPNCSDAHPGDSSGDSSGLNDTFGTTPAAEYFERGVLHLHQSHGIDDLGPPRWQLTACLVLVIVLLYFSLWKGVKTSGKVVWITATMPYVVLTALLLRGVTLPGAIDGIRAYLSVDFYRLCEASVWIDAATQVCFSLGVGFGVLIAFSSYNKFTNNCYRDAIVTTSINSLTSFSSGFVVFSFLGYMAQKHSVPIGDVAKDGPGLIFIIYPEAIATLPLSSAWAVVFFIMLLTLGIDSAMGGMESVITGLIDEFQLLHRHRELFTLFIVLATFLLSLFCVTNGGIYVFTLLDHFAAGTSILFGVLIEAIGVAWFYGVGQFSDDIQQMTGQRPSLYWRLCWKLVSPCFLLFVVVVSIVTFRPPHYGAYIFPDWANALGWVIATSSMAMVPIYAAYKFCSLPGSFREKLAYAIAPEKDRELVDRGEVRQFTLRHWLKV
Sequence of Voltage-dependent L-type calcium channel subunit alpha-1C (P22002 whole entry): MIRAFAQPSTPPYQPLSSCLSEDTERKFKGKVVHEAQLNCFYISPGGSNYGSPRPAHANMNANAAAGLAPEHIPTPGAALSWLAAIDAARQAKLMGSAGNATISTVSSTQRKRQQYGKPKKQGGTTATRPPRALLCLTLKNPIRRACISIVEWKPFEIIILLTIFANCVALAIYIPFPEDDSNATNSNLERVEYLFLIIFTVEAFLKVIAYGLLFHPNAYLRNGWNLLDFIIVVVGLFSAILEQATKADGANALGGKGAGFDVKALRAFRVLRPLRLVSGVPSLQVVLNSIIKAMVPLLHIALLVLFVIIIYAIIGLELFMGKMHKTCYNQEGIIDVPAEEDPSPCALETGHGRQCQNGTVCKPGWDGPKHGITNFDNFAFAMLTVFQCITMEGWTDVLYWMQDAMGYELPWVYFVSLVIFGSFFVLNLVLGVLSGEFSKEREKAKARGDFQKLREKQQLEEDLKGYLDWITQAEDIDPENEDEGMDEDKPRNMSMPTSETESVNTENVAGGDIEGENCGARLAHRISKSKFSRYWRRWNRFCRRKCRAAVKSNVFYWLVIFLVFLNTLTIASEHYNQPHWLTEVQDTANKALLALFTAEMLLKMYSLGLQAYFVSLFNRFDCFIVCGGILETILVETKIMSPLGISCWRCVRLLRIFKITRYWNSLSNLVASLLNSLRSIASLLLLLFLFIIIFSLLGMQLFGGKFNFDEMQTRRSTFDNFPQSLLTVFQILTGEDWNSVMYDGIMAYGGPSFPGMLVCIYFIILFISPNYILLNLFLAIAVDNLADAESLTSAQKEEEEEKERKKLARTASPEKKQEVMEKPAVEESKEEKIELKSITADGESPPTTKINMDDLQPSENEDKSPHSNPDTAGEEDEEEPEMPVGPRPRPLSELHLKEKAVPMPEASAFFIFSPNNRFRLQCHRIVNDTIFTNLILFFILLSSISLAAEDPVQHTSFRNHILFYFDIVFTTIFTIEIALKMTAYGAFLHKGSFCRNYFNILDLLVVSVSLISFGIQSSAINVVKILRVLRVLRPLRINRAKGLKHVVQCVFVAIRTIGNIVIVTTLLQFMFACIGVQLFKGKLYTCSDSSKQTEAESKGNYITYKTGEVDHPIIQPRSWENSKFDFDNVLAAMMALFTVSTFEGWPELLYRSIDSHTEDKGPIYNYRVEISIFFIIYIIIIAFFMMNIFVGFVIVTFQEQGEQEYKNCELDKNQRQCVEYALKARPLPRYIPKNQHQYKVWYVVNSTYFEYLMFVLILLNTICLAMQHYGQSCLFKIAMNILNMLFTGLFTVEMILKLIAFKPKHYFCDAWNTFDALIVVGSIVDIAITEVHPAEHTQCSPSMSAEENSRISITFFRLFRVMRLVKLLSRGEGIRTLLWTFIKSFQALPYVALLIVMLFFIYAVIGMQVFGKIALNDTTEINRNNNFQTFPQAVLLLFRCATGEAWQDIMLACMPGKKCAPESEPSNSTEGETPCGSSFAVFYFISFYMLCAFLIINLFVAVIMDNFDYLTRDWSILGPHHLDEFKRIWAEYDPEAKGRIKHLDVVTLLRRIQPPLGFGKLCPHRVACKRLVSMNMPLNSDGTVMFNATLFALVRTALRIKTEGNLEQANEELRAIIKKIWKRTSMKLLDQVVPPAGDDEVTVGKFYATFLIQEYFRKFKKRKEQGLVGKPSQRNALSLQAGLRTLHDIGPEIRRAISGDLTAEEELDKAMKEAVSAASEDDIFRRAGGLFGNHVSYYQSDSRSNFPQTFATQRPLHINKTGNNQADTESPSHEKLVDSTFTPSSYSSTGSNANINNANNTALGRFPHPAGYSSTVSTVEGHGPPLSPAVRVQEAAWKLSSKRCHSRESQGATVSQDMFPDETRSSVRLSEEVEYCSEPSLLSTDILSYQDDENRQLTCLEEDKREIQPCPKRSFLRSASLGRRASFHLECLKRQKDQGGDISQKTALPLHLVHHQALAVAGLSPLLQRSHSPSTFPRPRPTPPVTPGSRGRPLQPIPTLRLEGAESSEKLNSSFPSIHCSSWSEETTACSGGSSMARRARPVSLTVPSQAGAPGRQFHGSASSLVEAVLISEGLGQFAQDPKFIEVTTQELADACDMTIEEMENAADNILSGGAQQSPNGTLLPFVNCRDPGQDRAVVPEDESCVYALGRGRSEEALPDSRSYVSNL
Sequence of Gamma-aminobutyric acid receptor subunit alpha-1 (P62813 whole entry): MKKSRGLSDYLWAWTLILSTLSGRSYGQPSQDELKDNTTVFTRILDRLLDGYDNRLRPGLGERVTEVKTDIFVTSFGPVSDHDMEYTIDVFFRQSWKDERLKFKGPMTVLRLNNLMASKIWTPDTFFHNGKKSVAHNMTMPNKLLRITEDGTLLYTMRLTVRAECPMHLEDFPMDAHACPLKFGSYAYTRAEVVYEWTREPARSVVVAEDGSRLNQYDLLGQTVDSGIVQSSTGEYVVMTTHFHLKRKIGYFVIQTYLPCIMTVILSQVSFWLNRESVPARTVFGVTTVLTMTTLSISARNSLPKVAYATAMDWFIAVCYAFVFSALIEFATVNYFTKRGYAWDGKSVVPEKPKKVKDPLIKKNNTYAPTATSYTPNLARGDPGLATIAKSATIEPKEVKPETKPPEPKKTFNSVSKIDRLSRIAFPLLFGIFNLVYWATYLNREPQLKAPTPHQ
Sequence of Vasopressin V2 receptor (P30518 whole entry): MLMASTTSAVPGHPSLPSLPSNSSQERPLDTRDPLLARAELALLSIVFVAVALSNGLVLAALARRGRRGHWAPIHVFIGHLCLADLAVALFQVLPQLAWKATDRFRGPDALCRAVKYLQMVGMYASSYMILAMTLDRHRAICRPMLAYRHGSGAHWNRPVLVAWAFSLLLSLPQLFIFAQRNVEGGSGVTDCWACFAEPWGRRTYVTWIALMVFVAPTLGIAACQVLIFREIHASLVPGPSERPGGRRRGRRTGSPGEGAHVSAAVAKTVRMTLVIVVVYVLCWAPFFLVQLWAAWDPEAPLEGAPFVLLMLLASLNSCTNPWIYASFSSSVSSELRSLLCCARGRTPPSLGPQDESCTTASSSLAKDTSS
Sequence of Cannabinoid receptor 1 (P21554 whole entry): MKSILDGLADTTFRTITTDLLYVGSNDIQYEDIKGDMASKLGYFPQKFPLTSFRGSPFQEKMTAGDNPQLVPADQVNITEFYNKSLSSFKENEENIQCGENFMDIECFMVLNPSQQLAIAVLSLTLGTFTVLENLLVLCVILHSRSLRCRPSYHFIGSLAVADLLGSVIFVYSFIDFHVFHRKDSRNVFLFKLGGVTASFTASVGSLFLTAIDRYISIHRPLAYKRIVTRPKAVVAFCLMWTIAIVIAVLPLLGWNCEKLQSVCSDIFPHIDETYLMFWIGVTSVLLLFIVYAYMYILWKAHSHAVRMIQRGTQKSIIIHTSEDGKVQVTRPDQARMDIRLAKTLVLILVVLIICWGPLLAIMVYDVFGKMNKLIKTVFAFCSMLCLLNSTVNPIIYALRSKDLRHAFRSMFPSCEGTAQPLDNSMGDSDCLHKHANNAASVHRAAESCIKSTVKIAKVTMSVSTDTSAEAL
Sequence of Histamine H2 receptor (P25021 whole entry): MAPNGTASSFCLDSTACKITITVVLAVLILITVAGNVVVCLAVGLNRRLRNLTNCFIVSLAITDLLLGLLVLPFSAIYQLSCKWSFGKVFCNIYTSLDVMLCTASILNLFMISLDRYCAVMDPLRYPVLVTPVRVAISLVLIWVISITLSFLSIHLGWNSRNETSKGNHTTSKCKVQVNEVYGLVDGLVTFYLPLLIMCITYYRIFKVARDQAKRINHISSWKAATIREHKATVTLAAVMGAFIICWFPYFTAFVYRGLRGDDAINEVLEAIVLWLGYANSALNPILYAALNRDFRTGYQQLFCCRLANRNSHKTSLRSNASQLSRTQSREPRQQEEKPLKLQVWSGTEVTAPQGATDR

Row | SMILES | AC50 [1] | AC50 [2] | AC50 [3] | AC50 (D(1A) dopamine receptor) | AC50 [4] | AC50 [5] | AC50 [6] | AC50 (Histamine H2 receptor) | AC50 [7] | AC50 (Vasopressin V2 receptor) | AC50 (Cannabinoid receptor 1) | AC50 [8] | AC50 [9]
1 | CC(C)OC(=O)C(C(=O)OC(C)C)=C1SC=CS1 [MALOTILATE] | 28 µM | > 30 µM | > 30 µM | > 30 µM | > 30 µM | > 30 µM | > 30 µM | > 30 µM | 15 µM | > 30 µM | > 30 µM | > 30 µM | > 30 µM
2 | CN(c1nccc(=O)[nH]1)C1CCN(c2nc3ccccc3n2Cc2ccc(F)cc2)CC1 [MIZOLASTINE] | > 30 µM | > 10 µM | > 30 µM | > 30 µM | > 30 µM | > 30 µM | > 30 µM | > 30 µM | > 30 µM | > 30 µM | > 30 µM | > 30 µM | 3.34 µM
3 | CC(=O)c1ccc2c(c1)N(CCCN1CCC(CCO)CC1)c1ccccc1S2 [PIPERACETAZINE] | 0.14 µM | 11 µM | > 30 µM | > 30 µM | > 30 µM | 7.6 µM | 0.37 µM | > 30 µM | > 30 µM | > 30 µM | > 30 µM | > 30 µM | 0.5 µM
4 | CCN(CC)CC(=O)Oc1ccc(NC(C)=O)cc1 [PROPACETAMOL] | > 30 µM | > 30 µM | > 30 µM | > 30 µM | > 30 µM | > 30 µM | > 30 µM | > 30 µM | > 30 µM | > 30 µM | > 30 µM | > 30 µM | > 30 µM
5 | CCCOC(C(=O)OC1CCN(C)CC1)(c1ccccc1)c1ccccc1 [PROPIVERINE] | > 30 µM | 9.9 µM | > 30 µM | > 30 µM | > 30 µM | 16 µM | > 30 µM | > 30 µM | > 30 µM | > 30 µM | > 30 µM | > 30 µM | 3.2 µM
6 | CC(C)CC(N(C)C)C1(c2ccc(Cl)cc2)CCC1 (centres undefined) [SIBUTRAMINE] | > 30 µM | > 30 µM | > 10 µM | > 10 µM | > 30 µM | 0.75 µM | 3.8 µM | > 10 µM | > 10 µM | > 30 µM | > 30 µM | > 30 µM | 8.34 µM
7 | [H]/N=C(/N)N[C@H]1[C@H](O)[C@@H](O)[C@H](O[C@@H]2O[C@@H](C)[C@](O)(C=O)[C@H]2O[C@@H]2O[C@@H](CO)[C@H](O)[C@@H](O)[C@@H]2NC)[C@@H](N/C(N)=N\[H])[C@@H]1O [STREPTOMYCIN] | > 30 µM | > 30 µM | > 30 µM | > 30 µM | > 30 µM | > 30 µM | > 30 µM | > 30 µM | > 30 µM | > 30 µM | > 30 µM | > 30 µM | > 30 µM
8 | CC(C)(C)NC[C@H](O)COc1nsnc1N1CCOCC1 [TIMOLOL] | > 30 µM | > 30 µM | > 30 µM | > 30 µM | > 30 µM | > 30 µM | > 30 µM | > 30 µM | > 30 µM | > 30 µM | > 30 µM | > 30 µM | > 30 µM
